The results in this text go back to ChEMBL document CHEMBL1201862, “PubChem BioAssay data set” (2004).

Among the test systems are LOX IMVI; K562; CCRF-CEM; MCF7; IGROV-1; CAKI-1; SN12C; SF-268; MDA-MB-231; NCI-H460; MDA-MB-435; RPMI-8226; SF-539; HCT-116; HL-60; DU-145; Malme-3M; PC-3; NCI-H522; T47D.
Holding throughout (assay): NCI tumour cell line growth inhibition, 48 h

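Briefly, cells in 96-well plates were exposed to five compound concentrations for 48 h, and endpoints were estimated by linear interpolation. Abbreviation: GI50, concentration required for 50% inhibition of growth.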 Active and inactive are the calls of the source. Cut-off read from the data, not from the text of the source: active = GI50 up to about 1.1 µM and inactive = higher.

Regarding `CC(C)(C)OC(=O)NC(Cc1ccc(OCc2ccccc2)cn1)C(=O)O` (centres undefined), the GI50 in the assay with LOX IMVI is > 100 µM (inactive); in the assay with K562, > 100 µM (inactive); in the assay on CCRF-CEM, > 10 µM (inactive); in the assay on MCF7 it was > 100 µM (inactive); in the assay on IGROV-1 it was > 100 µM (inactive); in the assay with CAKI-1, > 100 µM (inactive). The GI50 in the assay on SN12C, with SF-268, with MDA-MB-231, with NCI-H460, with MDA-MB-435 and with RPMI-8226 was > 100 µM (inactive) throughout. Besides, the GI50 in the assay on SF-539, in the assay on HCT-116, in the assay with HL-60, in the assay with DU-145, in the assay on Malme-3M and in the assay on PC-3 was > 100 µM (inactive) throughout. Further, the GI50 with NCI-H522 is 67 µM (inactive).

On to `N#C/C(=C\c1cc(Br)c(O)c(Br)c1)c1cccnc1`, for which the GI50 in the assay with K562 is 23.6 µM (inactive); in the assay on CCRF-CEM, 18.2 µM (inactive); with MCF7, 33 µM (inactive); in the assay on IGROV-1 it was 52.8 µM (inactive); in the assay on CAKI-1 it was 35.7 µM (inactive); with SN12C, 34.7 µM (inactive). Further, the GI50 in the assay on SF-268 is 33.4 µM (inactive); with NCI-H460, 32.5 µM (inactive); in the assay with RPMI-8226, 21.6 µM (inactive); in the assay with SF-539, 26.2 µM (inactive); in the assay with HCT-116 it was > 100 µM (inactive); in the assay with HL-60, 27 µM (inactive). Besides, the GI50 in the assay on DU-145 was > 100 µM (inactive); with Malme-3M, 17.2 µM (inactive); in the assay on PC-3 it was 22 µM (inactive); in the assay with NCI-H522 it was 30.6 µM (inactive).

As for `CCOC(=O)C(=Cc1ccc(C(=O)OC)cc1)C(=O)OCC`, the GI50 in the assay on LOX IMVI is 1.73 µM (inactive); in the assay with K562 it was 2.32 µM (inactive); in the assay with CCRF-CEM, 1.58 µM (inactive); with IGROV-1, 3.01 µM (inactive); in the assay with CAKI-1, 1.67 µM (inactive); in the assay with SN12C it was 2.25 µM (inactive). The GI50 was 2.4 µM (inactive) with SF-268; 21.1 µM (inactive) in the assay on NCI-H460; 1.37 µM (inactive) with RPMI-8226; 1.67 µM (inactive) in the assay with SF-539; 3.33 µM (inactive) in the assay on HCT-116; 1.54 µM (inactive) in the assay on HL-60. In addition, the GI50 with Malme-3M was 1.8 µM (inactive); in the assay with NCI-H522, 1.33 µM (inactive).

In the case of `O=C(CO[N+](=O)[O-])OCC(=O)c1ccccc1`, the GI50 with LOX IMVI, with K562, in the assay on CCRF-CEM, in the assay with IGROV-1, with CAKI-1 and in the assay on SN12C was > 100 µM (inactive) each time. Also, the GI50 in the assay with SF-268, in the assay with NCI-H460, in the assay with RPMI-8226, in the assay with SF-539, in the assay with HCT-116 and with HL-60 was > 100 µM (inactive) in each case. Besides, the GI50 in the assay with Malme-3M and in the assay on NCI-H522 was > 100 µM (inactive) throughout.

With `O=C(Nc1ccc(Cl)c(Cl)c1)C(=O)Nn1c(S)nc2ccccc2c1=O`, the GI50 in the assay with LOX IMVI, in the assay with K562, with CCRF-CEM, with IGROV-1, with CAKI-1 and in the assay on SN12C was > 100 µM (inactive) each time. Further, the GI50 in the assay with SF-268, in the assay on NCI-H460, in the assay on RPMI-8226, in the assay with SF-539, in the assay with HCT-116 and in the assay with HL-60 was > 100 µM (inactive) throughout. Moreover, the GI50 with Malme-3M and in the assay with NCI-H522 was > 100 µM (inactive) in each case.

Take `Cc1ccc2nc(-c3ccc(N)c(Br)c3)sc2c1`: the GI50 is 13.2 µM (inactive) with LOX IMVI; 17.4 µM (inactive) in the assay on K562; 3.37 µM (inactive) in the assay with CCRF-CEM; 34.8 µM (inactive) in the assay on CAKI-1; > 100 µM (inactive) in the assay with SN12C; 10.6 µM (inactive) in the assay with SF-268. Moreover, the GI50 in the assay with MDA-MB-231 was 25.3 µM (inactive); in the assay on NCI-H460 it was 5.6 µM (inactive); with MDA-MB-435 it was 5.4 µM (inactive); with SF-539, 33.1 µM (inactive); with HCT-116, 31.4 µM (inactive); in the assay on T47D, 0.655 µM (active). For the same compound, the GI50 was 17.4 µM (inactive) in the assay with HL-60; 31.5 µM (inactive) in the assay with DU-145; > 100 µM (inactive) in the assay with Malme-3M; 22.2 µM (inactive) in the assay on PC-3; 0.875 µM (active) with NCI-H522.

For the compound `C/C(=N\NS(=O)(=O)c1ccc(C)cc1)C(CN1CCOCC1)C(c1ccccc1)c1c(O)c2ccccc2oc1=O` (centres undefined), the GI50 in the assay on LOX IMVI is > 100 µM (inactive); with K562, 53.2 µM (inactive); with CCRF-CEM, 37.5 µM (inactive); with IGROV-1 it was > 100 µM (inactive); in the assay with CAKI-1, > 100 µM (inactive); in the assay with SN12C, > 100 µM (inactive). The GI50 in the assay with SF-268 was > 100 µM (inactive); in the assay on NCI-H460, > 100 µM (inactive); in the assay on RPMI-8226 it was 35.2 µM (inactive); in the assay with SF-539, > 100 µM (inactive); with HCT-116, > 100 µM (inactive); with HL-60, 30.8 µM (inactive). The results for the GI50 in the assay with Malme-3M and in the assay on NCI-H522 were > 100 µM (inactive) and 59.8 µM (inactive), respectively.

On to `CCNC(=O)C#CC(=O)NCC`, for which the GI50 was > 83.9 µM (inactive) in the assay with LOX IMVI; > 45.3 µM (inactive) with K562; > 46.1 µM (inactive) with CCRF-CEM; > 100 µM (inactive) with IGROV-1; > 100 µM (inactive) with CAKI-1; > 100 µM (inactive) in the assay on SN12C. The GI50 in the assay on SF-268 was 53.7 µM (inactive); in the assay with NCI-H460 it was > 100 µM (inactive); with RPMI-8226 it was > 42.4 µM (inactive); in the assay on SF-539, > 100 µM (inactive); with HCT-116, 21.9 µM (inactive); in the assay with HL-60, > 39.5 µM (inactive). Further, the GI50 in the assay with Malme-3M is > 10 µM (inactive); in the assay on NCI-H522 it was > 31.1 µM (inactive).

For the compound `Cc1cc(=O)oc2cc(OCc3nc4ccccc4c(=O)n3-c3ccccc3)ccc12`, the GI50 in the assay with LOX IMVI, in the assay with K562, in the assay with CCRF-CEM, in the assay on IGROV-1, in the assay with CAKI-1 and with SN12C was > 100 µM (inactive) throughout. Further, the GI50 in the assay with SF-268, in the assay with NCI-H460, with RPMI-8226, with SF-539, in the assay on HCT-116 and with HL-60 was > 100 µM (inactive) throughout. Moreover, the GI50 in the assay with Malme-3M and in the assay with NCI-H522 was > 100 µM (inactive) each time.

On to `CC(C)(C)c1cc(Oc2ccc(C#N)c(C#N)c2)cc(C(C)(C)C)c1`, for which the GI50 in the assay with LOX IMVI is 33.4 µM (inactive); in the assay on K562, 83.2 µM (inactive); in the assay on CCRF-CEM, 38.3 µM (inactive); with IGROV-1 it was > 100 µM (inactive); with CAKI-1, > 100 µM (inactive); in the assay with SN12C, > 100 µM (inactive). For the same compound, the GI50 in the assay with SF-268 is > 100 µM (inactive); with NCI-H460 it was 39.9 µM (inactive); in the assay on RPMI-8226, > 100 µM (inactive); with SF-539 it was > 100 µM (inactive); in the assay on HCT-116, 68.1 µM (inactive); in the assay on HL-60, > 100 µM (inactive). In addition, the GI50 was > 100 µM (inactive) with Malme-3M and 36.1 µM (inactive) with NCI-H522.

For the compound `CCOC(=O)c1sc2nc(SC)nc3c2c1NCN3C1CC1`, the GI50 with LOX IMVI, in the assay on CCRF-CEM, with IGROV-1, in the assay with CAKI-1, in the assay with SN12C and in the assay on SF-268 was > 100 µM (inactive) each time. In addition, the GI50 is > 100 µM (inactive) in the assay on MDA-MB-231; > 100 µM (inactive) with NCI-H460; > 100 µM (inactive) in the assay on MDA-MB-435; > 100 µM (inactive) in the assay on RPMI-8226; > 100 µM (inactive) with HCT-116; 48.6 µM (inactive) in the assay on T47D. Also, the GI50 in the assay with DU-145, with Malme-3M and in the assay on PC-3 was > 100 µM (inactive) throughout.

With `O=c1ccn2n1Cc1ccccc1C2`, the GI50 with LOX IMVI, in the assay on K562, in the assay with CCRF-CEM, with IGROV-1, with CAKI-1 and with SN12C was > 100 µM (inactive) each time. In addition, the GI50 with SF-268, in the assay with MDA-MB-231, in the assay with NCI-H460, with MDA-MB-435, in the assay with RPMI-8226 and in the assay on SF-539 was > 100 µM (inactive) each time. Also, the GI50 with HCT-116, in the assay with T47D, in the assay with HL-60, in the assay on DU-145, in the assay on Malme-3M and with PC-3 was > 100 µM (inactive) each time. In the assay on NCI-H522, the GI50 is > 100 µM (inactive).

Turning to `O=C(O)C1CCCCC1C(=O)Nn1cnnc1` (centres undefined), the GI50 in the assay with LOX IMVI, with K562, with CCRF-CEM, in the assay on MCF7, in the assay on IGROV-1 and in the assay with SN12C was > 100 µM (inactive) in each case. The GI50 with SF-268, in the assay with MDA-MB-231, with MDA-MB-435, in the assay on RPMI-8226, in the assay on SF-539 and in the assay with HCT-116 was > 100 µM (inactive) throughout. The GI50 with DU-145, in the assay on PC-3 and in the assay on NCI-H522 was > 100 µM (inactive) throughout.
